≈ marks a conversion by molar mass, not a printed value. Like-named read-outs stand apart in the source and are kept apart here.
Assays:
bacterial ribosomes = assay: Ribosomal drug susceptibility (MIC) of recombinant bacteria; details: Table 10
Method: (§1) The recombinants carrying the respective mutational alterations were subjected to determinations of minimal inhibitory concentrations (MIC) to assess ribosomal drug susceptibility. Cultures from single colonies were grown in LB medium supplemented with 0.05% Tween 80 and used for MIC tests in a microtiter plate format. Starting cultures contained 200 μl of bacterial cells at an optical density of 0.025 at 600 nm, and the respective drug was added in twofold series of dilution.

mitohybrid ribosomes = assay: as above; details: Table 10
Method: as §1

cytohybrid ribosomes = assay: as above; details: Table 10
E. coli = assay: MIC against gram-negative bacteria; assay type: cell-based; details: Escherichia coli, read-out: MIC
Excerpt: Agents Chemother. 2003, 47:1496-1502.

[1] = tested on: clinical methicillin resistant Staphylococcus aureus (MRSA) isolates; assay: MIC against clinical MRSA isolates, LB microdilution assay
Method: Activity was assessed by determination of minimal inhibitory concentrations (MIC), as described in Pfister et al., Antimicrob. […] Cultures from single colonies were grown in LB medium and used for MIC tests in a microtiter plate format. Starting cultures contained 200 μl of bacterial cells at an optical density of 0.025 at 600 nm, and the respective drug was added in twofold series of dilution.

CNC1C(OC2OC(CO)C(NC(=O)C(O)CCN)C(O)C2O)OC2CC(N)C(OC3C(N)CC(N)C(O)C3O)OC2C1O [ETH 105, 4″-N-[(2S)-4-Amino-2-hydroxybutyryl]apramycin]
MIC, wild type bacteria (bacterial ribosomes): 4.0 µg/mL
MIC, bacteria with mitohybrid ribosome (mitohybrid ribosomes): >256.0 µg/mL
MIC, bacteria with cytohybrid ribosome (cytohybrid ribosomes): >256.0 µg/mL

NC[C@@H]1O[C@H](O[C@H]2[C@@H](O)[C@H](O[C@@H]3[C@@H](O)[C@H](N)C[C@H](N)[C@H]3O[C@H]3O[C@H](CO)[C@@H](O)[C@H](O)[C@H]3N)O[C@@H]2CO)[C@H](N)[C@@H](O)[C@@H]1O [Paromomycin]
MIC (E. coli; E. coli AG01, clin. isol. (Gm^S)): 16 to 32 µg/mL (≈ 26 to 52 µM)
MIC (E. coli; E. coli AG02, clin. isol (Gm^S)): 8 to 16 µg/mL (≈ 13 to 26 µM)
MIC (E. coli; E. coli AG03, clin. isol (Gm^R)): 8 to 16 µg/mL (≈ 13 to 26 µM)
MIC (E. coli; E. coli AG06, BM13): 2 µg/mL (≈ 3.25 µM)
MIC (E. coli; E. coli AG07, BM13/pIP135, resistance mechanism AAC(3)): 8 µg/mL (≈ 13 µM)
MIC (E. coli; E. coli AG08, BM13/pIP055, resistance mechanism ANT(2″)): 4 to 8 µg/mL (≈ 6.5 to 13 µM)
MIC (E. coli; E. coli AG09, AAC(6′)-1B, resistance mechanism AAC(6′)): 8 to 16 µg/mL (≈ 13 to 26 µM)
MIC (E. coli; E. coli AG36, HB101/pAT197, resistance mechanism ANT(4′)): 256 µg/mL (≈ 416 µM)
MIC (E. coli; E. coli AG37, HB101/pAG21-1, resistance mechanism APH(3′)): > 256 µg/mL
MIC ([1]; MRSA AG040, strain 87-26S Gm^S): >256 µg/mL
MIC ([1]; MRSA AG046, strain 12-06R Gm^R): >256 µg/mL
MIC ([1]; MRSA AG047, strain 18-06R Gm^R): >256 µg/mL
MIC ([1]; MRSA AG048, strain 20-06R Gm^R): >256 µg/mL
MIC ([1]; MRSA AG049, strain 23-12R Gm^R): >256 µg/mL
MIC ([1]; MRSA AG050, strain 31-06R Gm^R): >256 µg/mL
MIC ([1]; MRSA AG051, strain 36-06R Gm^R): >256 µg/mL
MIC ([1]; MRSA AG052, strain 53-14I Gm^R): >256 µg/mL
MIC ([1]; Staphylococcus aureus, MRSA): > 256 µg/mL
MIC ([1]; Staphylococcus aureus, MRSA, MRSA AG038, strain 70-26S Gm^S): 2 to 4 µg/mL (≈ 3.25 to 6.5 µM)
MIC ([1]; Staphylococcus aureus, MRSA, MRSA AG041, strain 98-25S Gm^S): 4 µg/mL (≈ 6.5 µM)
MIC ([1]; Staphylococcus aureus, MRSA, MRSA AG043, strain 01-08R Gm^R): 4 to 8 µg/mL (≈ 6.5 to 13 µM)
MIC ([1]; Staphylococcus aureus, MRSA, MRSA AG044, strain 07-12R Gm^R): 2 to 4 µg/mL (≈ 3.25 to 6.5 µM)
MIC ([1]; Staphylococcus aureus, MRSA, MRSA AG045, strain 08-12R Gm^R): 4 µg/mL (≈ 6.5 µM)
MIC ([1]; Staphylococcus aureus, MRSA, MRSA AG053, strain 56-06R Gm^R): 2 to 4 µg/mL (≈ 3.25 to 6.5 µM)
